Laboratory results reported in patent publication US20110250133A1, “GASTRIN […] PEPTIDE COMPOUNDS” (priority 2003, published 2011).
Entries after “also recorded” stand apart in the source; their conditions may differ.

Assays:
NMB-R = target: T1, NMB-R (Rattus norvegicus, UniProt P24053); experiment: Competition with 125I-NMB for NMB-R in C6 cells (linker specificity); assay type: binding, rodent; conditions: for receptor subtype preference (GRP-R vs NMB-R): from IC50 with 125I-NMB (C6) and 125I-BBN (PC3), cut off 10x the IC50 of [Tyr4]-BBN; for receptor preference in words (GRP-R / GRP-R and NMB-R): wrapped cell: 'No selective preference' or 'preference for NMB-R';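 for all read-outs here: test cells: rodent glioblastoma C6 line carrying NMB-R, human prostate cancer PC3 line carrying GRP-R, affinity fitted by one-site competition nonlinear regression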
T1 construct: C6, an NMB-R expressing rodent glioblastoma cell line; host or cells: C6 glioblastoma cells, intact adherent cells
T1 sequence (P24053 1-390): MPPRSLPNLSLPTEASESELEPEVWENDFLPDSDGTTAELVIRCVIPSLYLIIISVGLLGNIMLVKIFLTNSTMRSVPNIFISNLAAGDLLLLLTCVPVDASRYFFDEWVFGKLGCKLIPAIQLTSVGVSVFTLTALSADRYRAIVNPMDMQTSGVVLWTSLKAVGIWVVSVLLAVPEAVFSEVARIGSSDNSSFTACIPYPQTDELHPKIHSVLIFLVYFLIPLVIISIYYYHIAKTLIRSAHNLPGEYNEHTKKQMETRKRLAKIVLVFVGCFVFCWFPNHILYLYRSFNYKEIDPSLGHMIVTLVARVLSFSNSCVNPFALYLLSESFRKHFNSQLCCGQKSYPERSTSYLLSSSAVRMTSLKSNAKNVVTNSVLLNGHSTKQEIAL
Method: Two cell lines, C6, an NMB-R expressing rodent glioblastoma cell line and PC3, a GRP-R expressing human prostate cancer cell line, were used in this assay. The affinity of various unlabeled compounds for each receptor subtype (NMB-R and GRP-R) was determined indirectly by measuring its ability to compete with the binding of ^125I-NMB or ^125I-BBN to its corresponding receptors in C6 and PC3 cells.
Cells for the assays were plated at a concentration of 9.6×10^4/well in 48 well poly-lysine coated plates (Beckton Dickinson Biocoat). PC3 were obtained from ATCC(CRL-1435) and cultured in RPMI 1640 (ATCC) supplemented with 2 mM L-glutamine, 1.5 g/L Sodium bicarbonate, 10 mM HEPES and 10% FBS. […] PC3 cells for the assays were plated at a concentration of 2.0×10^4 cells/well in 96-well white/clear bottom plates (Falcon Optilux-I). Plates were used for the assays on day 2 of the post-plating.
RPMI 1640 (ATCC) containing 25 mM HEPES, 0.2% BSA fraction V, 1.0 mM AEBSF (CAS # 3087-99-7) and 0.1% Bacitracin (CAS # 1405-87-4), pH 7.4. Custom made ^125I-[Tyr^0]NMB, >2.0 Ci/μmole (Amersham Life Science) [^125I-NMB] and commercially available ^125I-[Tyr^4]BBN, >2.0 Ci/μmole (Perkin Elmer Life Science) [^125I-BBN] were used as radioligands.
Using a 48-well plate assay system (for C6 study) competition experiments were performed using ^125I-NMB. […] Selection of compounds for the assay was based on linker subtype.
The binding parameters obtained from the studies were analyzed using a one-site competition non-linear regression analysis with GraphPad Prism. The relative affinity of various compounds for NMB-R in C6 cells were compared with those obtained using commercially available [Tyr^4]-BBN and [Tyr^0]-NMB. To distinguish the GRP-R preferring compounds from NMB-R plus GRP-R preferring compounds, IC50 values obtained for each compound were compared with those obtained from [Tyr^4-BBN with ^125I-NMB on C6 cells.

GRP-R = target: T2, GRP-R (Homo sapiens, UniProt P30550); experiment: Competition studies of modified BBN analogs with 125I-BBN for GRP-R in PC3 cells (Example LXI); assay type: binding
T2 construct: host or cells: PC3 (PC-3) human prostate cancer cells, intact adherent cells
T2 sequence (P30550 whole entry): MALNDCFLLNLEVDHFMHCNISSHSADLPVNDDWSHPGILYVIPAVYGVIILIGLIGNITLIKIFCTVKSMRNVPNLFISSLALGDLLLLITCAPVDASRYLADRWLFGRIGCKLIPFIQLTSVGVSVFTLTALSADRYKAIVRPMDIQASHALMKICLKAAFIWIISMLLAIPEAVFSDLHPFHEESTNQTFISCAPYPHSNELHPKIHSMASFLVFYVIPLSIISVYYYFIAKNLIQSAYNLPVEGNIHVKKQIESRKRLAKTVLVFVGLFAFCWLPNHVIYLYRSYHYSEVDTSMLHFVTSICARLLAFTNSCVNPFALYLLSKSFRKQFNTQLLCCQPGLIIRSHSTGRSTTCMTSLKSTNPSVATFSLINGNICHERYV
Method: PC3 cell lines were obtained from ATCC(CRL-1435) and cultured in RPMI 1640 (ATCC) supplemented with 2 mM L-glutamine, 1.5 g/L Sodium bicarbonate, 10 mM HEPES and 10% FBS. […] PC3 cells for the assays were plated at a concentration of 2.0×10^4 cells/well in a 96-well white/clear bottom plates (Falcon Optilux-I). Plates were used for the assays on day 2 of the post-plating.
^125I-BBN (Cat # NEX258) was obtained from PerkinElmer Life Sciences.
All compounds tested were dissolved in binding buffer and appropriate dilutions were also done in binding buffer. PC3 cells for assay were seeded at a concentration of 2.0×10^4/well either in 96-well black/clear collagen I cellware plates (Beckton Dickinson Biocoat). Plates were used for binding studies on day 2 post-plating. The plates were checked for confluency (>90% confluent) prior to assay. […] The studies were conducted with an assay volume of 75 μL per well. Triplicate wells were used for each data point. After the addition of the appropriate solutions, plates were incubated for 1 hour at 4° C. Incubation was ended by the addition of 200 μL of ice-cold incubation buffer. Plates were washed 5 times and blotted dry. Radioactivity was detected using either a LKB CompuGamma counter or a microplate scintillation counter.

[1] = test system: T47D human breast cancer cells; experiment: Effect of drug treatment on GRP receptor binding (177Lu-AMBA) in T47D cells; assay type: cell-based; conditions: for increase in 177Lu-AMBA binding (GRP receptor specific signal per cell): relative to untreated control, drug 0.1-1.0 μM (gefitinib 0.1-10 μM)
Text: T-47D breast cancer cells (human metastatic mammary gland ductal adenocarcinoma isolated from pleural effusion, ER+, PR+) were obtained from the American Type Culture Collection.

[2] = test system: PC-3 prostate cancer cells; experiment: Effect of drug treatment on GRP receptor binding (177Lu-AMBA) in PC-3 cells; assay type: cell-based, human; conditions: for decrease in 177Lu-AMBA binding (GRP receptor specific signal per cell) / increase in 177Lu-AMBA binding (GRP receptor specific signal per cell): PC-3, relative to untreated control; for decrease in 177Lu-AMBA binding (GRP receptor specific signal per cell): drug 0.1-1.0 μM (gefitinib 0.1-10 μM); for increase in 177Lu-AMBA binding (GRP receptor specific signal per cell): drug 0.1-1.0 μM
Method: (§1) RPMI 1640 supplemented with 20 mM HEPES, 0.1% BSA (w/v), 0.5 mM PMSF (AEBSF), bacitracin (50 mg/500 ml), pH 7.4.
(§2) Incubations were stopped by the addition of 200 μL of ice-cold binding buffer. Plates were washed three more times with binding buffer, 140 μL of scintillation fluid was added to each well, the plates were sealed and analyzed on a Microβ plate reader (Microbeta Trilux, Perkin-Elmer).
PC-3 (human prostate adenocarcinoma, bone metastasis, AR-, ER) were obtained from the American Type Culture Collection. The growth medium for PC-3 cells is RPMI 1640 (10-041-CM, Mediatech, Inc), supplemented with 10% heat inactivated FBS (Hyclone, SH30070.03) and PSF-1× (as in Example LXVI). The binding buffer, lapatinib solutions, treatment method and cell binding assay is the same as in Example LXVI.

[3] = test system: BT-474 human breast cancer cells; experiment: Effect of drug treatment on GRP receptor binding (177Lu-AMBA) in BT-474 cells; assay type: cell-based; conditions: for decrease in 177Lu-AMBA binding (GRP receptor specific signal per cell): relative to untreated control, drug 0.1-1.0 μM (4-OH Tamoxifen 0.001-0.1 μM)
Method: BT-474 breast cancer cells (human primary invasive ductal carcinoma; ER+, PR+, amplified HER2/neu+) were obtained from the American Type Culture Collection. The growth medium for BT-474 cells is Hybri-care Medium (Cat No: 46X, ATCC) supplemented with 10% heat inactivated FBS (Hyclone, SH30070.03), 0.2% NaHCO3, and antibiotic/antimycotic “PSF-1×” (GibcoBRL, 15240-062) for a final concentration of penicillin-streptomycin (1×, 100 units/mL), and fungizone (0.25 μg/mL). […] Cells for binding experiments were plated on Day 0 at 5.6×10^4 cells/cm^2 in 96-well white/clear bottom microtiter plates (Falcon Optilux-I), or 96 well black/clear collagen I cellware plates (Beckton Dickinson Biocoat).
as §1, §2
Treatment: BT-474 cells were plated on Day 0 and treated on Days 1 and 2 (DT1, DT2).

[4] = test system: PC-3 prostate cancer cells; experiment: Effect of dasatinib on GRP receptor binding, proliferation and glucose uptake in PC-3 cells (single plate assay); assay type: cell-based, human; conditions: for % Change in 2-NBDG uptake / % change in 177Lu-AMBA uptake / % Change in Proliferation / 177Lu-AMBA uptake (Bmax fmoles/million cells): PC3 cells; for % Change in Proliferation: N = 4; for 177Lu-AMBA uptake (Bmax fmoles/million cells): control 266 (±23)
Method: The cells were plated on Day 0 (7.5 k/well 96-well PE Scintiplate). […] To determine the cell numbers and the proliferation, 100 uL of 10% CCK—F solution in DPBS (Molecular technologies) was added to the same plate, incubated for 30 min at 37° C. and the relative fluorescence (RFU) measured at 535 nm. Base on the cell numbers and the ^177Lu-binding, the Bmax (fmoles bound/million cells) was calculated, and the results compared with the control.
For the glucose uptake study, a fluorescently labeled 2-deoxyglucose derivative (2-NBDG) was used. After the dasatinib treatment as described above, the cells were incubated with 2-NBDG (200 uM) in binding buffer for 2 h at 37° C. and measured RFU at 530 nm. The cell numbers were determined using CCK—F as described above. Based on the cell numbers Bmax for glucose uptake was determined and compared with the control.

[5] = yes / —, cut off 10x the IC50 of [Tyr4]-BBN with 125I-NMB on C6 cells
[6] = drug 0.1-1.0 μM, ↑ increase, ↓ decrease vs untreated

For DO3A-monoamide-Aoc-QWAVGHL-Nle-NH2, the “receptor subtype preference (GRP-R vs NMB-R)” value (NMB-R) was “dual affinity for both GRP-R and NMB-R” and the “GRP-R and NMB-R (binds both)” value (NMB-R; [5]) was “Yes”.
With “DO3A-Gly-Abz4-Gln-Trp-Ala-Val-Gly-His-Phe-Leu-NH2 [Compound L300]” the “competition at the GRP-R” value (GRP-R) was “high activity at the GRP-R”.
sorafenib was tested, and the “change in GRP receptor specific signal per cell (177Lu-AMBA binding)” value ([1]; T-47D) was “no change”, the “change in 177Lu-AMBA uptake (GRP-R) on a viable cell basis, T47D” value [1, 6] was “NC (NC: Little(<10%) or no change in Lu-AMBA uptake)” and the “decrease in 177Lu-AMBA binding (GRP receptor specific signal per cell)” value [2] was 10-20%. The “decrease in 177Lu-AMBA binding (GRP receptor specific signal per cell)” value ([3]; BT-474) was 10-25%.
In the case of “N-[(3β,5β,12α)-3-[[[4,7,10-Tris(carboxymethyl)-1,4,7,10-tetraazacyclododec-1-yl]acetyl]amino]-glycyl-4-aminobenzoyl-L-leucyl-L-tryptophyl-L-alanyl-L-threonyll-glycyl-L-histidyl-L-phenylalanyl-L-methioninamide [Compound L227]”, the “receptor subtype preference (GRP-R vs NMB-R)” value (NMB-R) is reported as “affinity to GRP-R in addition to its inherent NMB-R affinity”.
CC/C(=C(\c1ccc(O)cc1)c1ccc(OCCN(C)C)cc1)c1ccccc1 [Compounds 4-OH-Tamoxifen] was tested, and the “change in 177Lu-AMBA binding (GRP receptor specific signal per cell) vs untreated controls, T47D” value ([1]; Table 25, range 0.001-0.1 μM) was −35%, the “change in 177Lu-AMBA binding (GRP receptor specific signal per cell) vs untreated controls, PC-3” value ([2]; Table 25, range 0.001-0.1 μM) was 0% and the “change in 177Lu-AMBA binding (GRP receptor specific signal per cell) vs untreated controls, BT-474” value ([3]; Table 25, range 0.001-0.1 μM) was −73%.
With imatinib the “increase in 177Lu-AMBA binding (GRP receptor specific signal per cell)” value ([1]; T-47D) was “up to 15%”, the “decrease in 177Lu-AMBA binding (GRP receptor specific signal per cell)” value [2] was 15-25% and the “change in GRP receptor specific signal per cell (177Lu-AMBA binding)” value ([3]; BT-474, drug 0.1-1.0 μM (gefitinib 0.1-10 μM)) was “no change”. The “change in 177Lu-AMBA uptake (GRP-R) on a viable cell basis, BT-474” value [3, 6] was “NC (NC: Little(<10%) or no change in Lu-AMBA uptake)”.
For “Gln-Trp-Ala-Val-Gly-His-Leu-Met-NH2 [BBN7-14]”, the “receptor subtype preference (GRP-R vs NMB-R)” value (NMB-R) was “did not show any preference” and the “receptor preference in words (GRP-R / GRP-R and NMB-R)” value (NMB-R) was “No selective”.
dasatinib was tested, and the “% Change in 2-NBDG uptake” value ([4]; Dasatinib 1 nM) was −4.3 (±4.6) %, the “% change in 177Lu-AMBA uptake” value ([4]; Dasatinib 1 nM) was 12.3 (±5.8) % and the “% Change in Proliferation” value ([4]; Dasatinib 1 nM) was −4.3 (±1.0) %. The “177Lu-AMBA uptake (Bmax fmoles/million cells)” value ([4]; Dasatinib 1 nM) was 300 (±40) fmoles/million cells, the “% Change in 2-NBDG uptake” value ([4]; Dasatinib 10 nM) was −62.9 (±7.1) % and the “% change in 177Lu-AMBA uptake” value ([4]; Dasatinib 10 nM) was 45.4 (±8.1) %. For the same compound, the “% Change in Proliferation” value ([4]; Dasatinib 10 nM) was −11.2 (±5.9) %, the “177Lu-AMBA uptake (Bmax fmoles/million cells)” value ([4]; Dasatinib 10 nM) was 387 (±46) fmoles/million cells and the “% Change in 2-NBDG uptake” value ([4]; Dasatinib 100 nM) was −67.8 (±15.8) %. The “% change in 177Lu-AMBA uptake” value ([4]; Dasatinib 100 nM) was 76.7 (±5.0) %, the “% Change in Proliferation” value ([4]; Dasatinib 100 nM) was −33.3 (±11.4) % and the “177Lu-AMBA uptake (Bmax fmoles/million cells)” value ([4]; Dasatinib 100 nM) was 470 (±51) fmoles/million cells. The “177Lu-AMBA uptake, average Bmax” value ([4]; PC-3, 100 nM) was ≤ 470 fmoles/million cells, the “decrease of glucose uptake (2-NBDG)” value ([4]; PC-3, 100 nM) was ≤ 67.8% and the “inhibition of growth (cell proliferation)” value ([4]; PC-3, 100 nM) was ≤ 33%. The “increase in 177Lu-AMBA binding (GRP receptor specific signal per cell)” value ([1]; T-47D) was “up to 500%”, the “increase in 177Lu-AMBA binding (GRP receptor specific signal per cell)” value [2] was “up to 250%” and the “decrease in 177Lu-AMBA binding (GRP receptor specific signal per cell)” value ([3]; BT-474) was 10-15%.
In the case of DO3A-monoamide-Abu4-QWAVGHLM-NH2, the “receptor subtype preference (GRP-R vs NMB-R)” value (NMB-R) is reported as “dual affinity for both GRP-R and NMB-R” and the “GRP-R and NMB-R (binds both)” value (NMB-R; [5]) is reported as “yes”.
In the case of DO3A-monoamide-Cha-Cha-QWAVGHLM-NH2, the “receptor subtype preference (GRP-R vs NMB-R)” value (NMB-R) is reported as “selective affinity towards GRP-R” and the “GRP-R (GRP-R preferring)” value (NMB-R; [5]) is reported as “yes”.
For sunitinib, the “increase in 177Lu-AMBA binding (GRP receptor specific signal per cell)” value ([1]; T-47D) was “up to 13%”, the “increase in 177Lu-AMBA binding (GRP receptor specific signal per cell)” value [2] was “up to 10%” and the “decrease in 177Lu-AMBA binding (GRP receptor specific signal per cell)” value ([3]; BT-474) was “up to 8%”.
With “N-[(3β,5β,12α)-3-[[[4,7,10-Tris(carboxymethyl)-1,4,7,10-tetraazacyclododec-1-yl]acetyl]amino]-4-aminobenzoyl-glycyl-L-glutaminyl-L-tryptophyl-L-alanyl-L-valyl-glycyl-L-histidyl-L-leucyl-L-methioninamide [Compound L204]” the “receptor subtype preference (GRP-R vs NMB-R)” value (NMB-R) was “selective affinity to NMB-R; also recorded: favor the NMB subtype” and the “receptor preference in words (GRP-R / GRP-R and NMB-R)” value (NMB-R) was “preference for NMB-R”.
